Source: PubChem BioAssay (NCI)
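Assay format: 96-well plates, 48-hour exposure. Definition used: TGI = concentration required for complete inhibition of growth.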

Experiments:
Assay in all cases: NCI anticancer screen, dose series, 48 h
OVCAR-5 ovarian = test system: OVCAR-5 ovarian
SK-MEL-28 melanoma = test system: SK-MEL-28 melanoma
CAKI-1 renal = test system: CAKI-1 renal
HT29 colon = test system: HT29 colon
DMS 273 small cell lung = test system: DMS 273 small cell lung
KM12 colon = test system: KM12 colon
SN12C renal = test system: SN12C renal
COLO 205 colon = test system: COLO 205 colon
M19-MEL melanoma = test system: M19-MEL melanoma
SK-MEL-2 melanoma = test system: SK-MEL-2 melanoma
SK-MEL-5 melanoma = test system: SK-MEL-5 melanoma
XF 498 CNS = test system: XF 498 CNS
SNB-75 CNS = test system: SNB-75 CNS
ACHN renal = test system: ACHN renal
OVCAR-4 ovarian = test system: OVCAR-4 ovarian
UO-31 renal = test system: UO-31 renal
U251 CNS = test system: U251 CNS
UACC-257 melanoma = test system: UACC-257 melanoma
NCI-H460 lung = test system: NCI-H460 lung
K-562 leukemia = test system: K-562 leukemia
TK-10 renal = test system: TK-10 renal
MOLT-4 leukemia = test system: MOLT-4 leukemia
SR leukemia = test system: SR leukemia
RXF 393 renal = test system: RXF 393 renal
SNB-78 CNS = test system: SNB-78 CNS
786-0 renal = test system: 786-0 renal
M14 melanoma = test system: M14 melanoma
MALME-3M melanoma = test system: MALME-3M melanoma
SW-620 colon = test system: SW-620 colon
EKVX NSCLC = test system: EKVX NSCLC
IGROV1 ovarian = test system: IGROV1 ovarian
SF-295 CNS = test system: SF-295 CNS
NCI-H226 lung = test system: NCI-H226 lung
LXFL 529 NSCLC = test system: LXFL 529 NSCLC
KM20L2 colon = test system: KM20L2 colon
DLD-1 colon = test system: DLD-1 colon
UACC-62 melanoma = test system: UACC-62 melanoma
NCI-H23 lung = test system: NCI-H23 lung
OVCAR-8 ovarian = test system: OVCAR-8 ovarian
RPMI-8226 leukemia = test system: RPMI-8226 leukemia
HCT-15 colon = test system: HCT-15 colon
HOP-18 NSCLC = test system: HOP-18 NSCLC
HCT-116 colon = test system: HCT-116 colon
SK-OV-3 ovarian = test system: SK-OV-3 ovarian
A549 NSCLC = test system: A549 NSCLC
SNB-19 CNS = test system: SNB-19 CNS
OVCAR-3 ovarian = test system: OVCAR-3 ovarian
SF-539 CNS = test system: SF-539 CNS

Measured: TGI

C[N+](C)(C)CC1CCCC(C[N+](C)(C)C)C1=NO (stereo not drawn)
> 100 µM: OVCAR-5 ovarian | SK-MEL-28 melanoma | CAKI-1 renal | HT29 colon | DMS 273 small cell lung | KM12 colon | SN12C renal | COLO 205 colon | M19-MEL melanoma | SK-MEL-2 melanoma | SK-MEL-5 melanoma | XF 498 CNS | SNB-75 CNS | ACHN renal | OVCAR-4 ovarian | UO-31 renal | U251 CNS | UACC-257 melanoma | NCI-H460 lung | K-562 leukemia | TK-10 renal | MOLT-4 leukemia | SR leukemia | RXF 393 renal | SNB-78 CNS | 786-0 renal | M14 melanoma | MALME-3M melanoma | SW-620 colon | EKVX NSCLC | IGROV1 ovarian | SF-295 CNS | NCI-H226 lung | LXFL 529 NSCLC | KM20L2 colon | DLD-1 colon | UACC-62 melanoma | NCI-H23 lung | OVCAR-8 ovarian | RPMI-8226 leukemia | HCT-15 colon | HOP-18 NSCLC | HCT-116 colon | SK-OV-3 ovarian | A549 NSCLC | SNB-19 CNS | OVCAR-3 ovarian | SF-539 CNS
